The results in this text go back to patent publication US7247644B2, “Ester derivatives of a decahydroisoquinoline-3-carboxylic acid as analgestics” (Eli Lilly and Company, priority 2003, dated 2007).

By AUC is commonly meant the area under the concentration-time curve, a measure of exposure. The term Cmax denotes the peak of the concentration-time curve.

Each structure is given as a SMILES string.

Common to all, as to format: in vivo
Series [1] is described as follows: Bioavailability in Dogs: plasma concentrations of parent acid by LC/MS/MS. To be noted: both sexes, dog, iv; Compound A in plasma, Beagle dogs, 1 mg/kg. How it is done:
(§1) Percent bioavailability is determined using the following equation:
(§2) [formula] wherein AUC represents the area under the curve, p.o. represents oral dose, and i.v. represents intravenous dose. Bioavailability in Dogs:
Beagle dogs (2 male and 1 female) are administered an oral dose, and later an iv dose of (3S,4aR,6R,8aR)-6-[2-(1(2)H-tetrazole-5-yl)ethyl-1,2,3,4,4a,5,6,7,8,8a-decahydroisoquinoline-3-carboxylic acid (10 mg/Kg p.o; 1 mg/Kg i.v.) to determine oral bioavailability. Subsequently, the same three dogs are administered an oral 10 mg/kg dose of an ester prodrug (for example (3S,4aR,6R,8aR)-6-[2-(1(2)H-tetrazole-5-yl)ethyl-1,2,3,4,4a,5,6,7,8,8a-decahydroisoquinoline-3-carboxylic acid ethyl ester, HCL salt) to determine whether the prodrug would increase bioavailability of the parent acid. The plasma concentrations of (3S,4aR,6R,8aR)-6-[2-(1(2)H-tetrazole-5-yl)ethyl-1,2,3,4,4a,5,6,7,8,8a-decahydroisoquinoline-3-carboxylic acid are determined by LC/MS/MS.
Live Phase: (3S,4aR,6R,8aR)-6-[2-(1(2)H-tetrazole-5-yl)ethyl-1,2,3,4,4a,5,6,7,8,8a-decahydroisoquinoline-3-carboxylic acid (HCl salt) is dissolved in dilute sodium hydroxide for oral administration (30 mg/ml) and in 10% ethanol/water for iv administration (10 mg/ml). […]

A short description of series [2]: Bioavailability in Cynomolgus Monkeys: plasma concentrations of parent acid by LC/MS/MS. To be noted: both sexes, cynomolgus monkey, iv, 0.3 mg/kg, Compound A in plasma, .3 mg/kg. As for the experimental part:
as §1, §2
Two male and two female monkeys are administered an oral, and later, an iv dose of (3S,4aR,6R,8aR)-6-[2-(1(2)H-tetrazole-5-yl)ethyl-1,2,3,4,4a,5,6,7,8,8a-decahydroisoquinoline-3-carboxylic acid (oral: 3 mg/kg; iv: 0.3 mg/kg) to determine oral bioavailability. The same animals are also subsequently administered an oral 3 mg/kg dose of (3S,4aR,6R,8aR)-6-[2-(1(2)H-tetrazole-5-yl)ethyl-1,2,3,4,4a,5,6,7,8,8a-decahydroisoquinoline-3-carboxylic acid ethyl ester to determine if the ester prodrug form increases bioavailability of the parent acid. The plasma concentrations of the parent acid are determined by LC/MS/MS.
Four cynomolgus monkeys (2/sex) are given a single oral dose of (3S,4aR,6R,8aR)-6-[2-(1(2)H-tetrazole-5-yl)ethyl-1,2,3,4,4a,5,6,7,8,8a-decahydroisoquinoline-3-carboxylic acid (3 mg/kg) on day 0, a single iv dose of (3S,4aR,6R,8aR)-6-[2-(1(2)H-tetrazole-5-yl)ethyl-1,2,3,4,4a,5,6,7,8,8a-decahydroisoquinoline-3-carboxylic acid (0.3 mg/kg) on day 4 and a single oral dose of (3S,4aR,6R,8aR)-6-[2-(1(2)H-tetrazole-5-yl)ethyl-1,2,3,4,4a,5,6,7,8,8a-decahydroisoquinoline-3-carboxylic acid ethyl ester (3 mg/kg) on day 8. […]

Series [3] in a line: Bioavailability in Rats: plasma concentrations of parent acid by LC/MS/MS. To be noted: male, rat, iv; Compound A in plasma, Fischer rats, 10 mg/kg. How it is done: as §1, §2
Male Fischer Rats are administered either an oral or iv dose of (3S,[…])-6-[2-(1(2)H-tetrazole-5-yl)ethyl-1,2,3,4,4a,5,6,7,8,8a-decahydroisoquinoline-3-carboxylic acid (10 mg/Kg) to determine oral bioavailability. A separate group of rats are administered an oral 10 mg/kg dose of an ester prodrug (for example (3S,4aR,6R,8aR)-6-[2-(1(2)H-tetrazole-5-yl)ethyl-1,2,3,4,4a,5,6,7,8,8a-decahydroisoquinoline-3-carboxylic acid ethyl ester, HCL salt) to determine whether the prodrug would increase bioavailability of the parent acid. The plasma concentrations of (3S,4aR,6R,8aR)-6-[2-(1(2)H-tetrazole-5-yl)ethyl-1,2,3,4,4a,5,6,7,8,8a-decahydroisoquinoline-3-carboxylic acid are determined by LC/MS/MS.

In the case of `O=C(O)[C@@H]1C[C@H]2C[C@@H](CCc3nn[nH]n3)CC[C@H]2CN1` [Compound A], the values for the AUC in series [1], in series [2] and in series [3] were 4220 ng·h/mL, 1080 ng·h/mL and 6730 ng·h/mL, respectively. The Cmax in series [1] is 2820 ng/mL; in series [2], 1620 ng/mL; in series [3], 11000 ng/mL.
